Experimental findings from ChEMBL document CHEMBL1122102, “Hydrogen bonding and anesthetic potency” (J Med Chem, 1982) are described below.

Data set [1] in a line: Partition coefficient was determined in oil/gas system and value was reported. It is filed as ADME.
The next data set has as its system Canis familiaris. The experiment in a line: Evaluated in vitro for anesthetic activity in dog and minimum alveolar concentration (MAC) was determined. More on the design: unit not given here. The class given is functional, Canis lupus familiaris.
Another data set has as its system Homo sapiens. The experiment in a line: Evaluated in vitro for anesthetic activity in man and minimum alveolar concentration (MAC) was determined. The class given is functional. More on the design: unit not given here.
The test system of another data set is Mus musculus. In words: Evaluated in vitro for anesthetic activity in mice and ED50 value was reported. The class given is functional.

In data set [1], `FC(F)OC(F)(F)C(F)Cl` (stereo not drawn) showed a Partition coefficient of 98. The MAC with Canis familiaris came out at 2.06; in the data set on Homo sapiens, 1.68.

In the case of `ClC(Cl)Cl` [CHLOROFORM], the MAC with Canis familiaris is recorded as 0.77; in the data set with Homo sapiens, 0.5. In the data set with Mus musculus, this molecule returned an ED50 of 0.84.

Take `FC(F)(F)C(Cl)Br` (stereo not drawn) [HALOTHANE]: the Partition coefficient in data set [1] turned out to be 220. Further, the MAC in the data set on Canis familiaris came out at 0.87; in the data set with Homo sapiens it was 0.74. This molecule gave an ED50 with Mus musculus of 0.77.

In turn, `FC(F)OC(Cl)C(F)(F)F` (stereo not drawn) [ISOFLURANE] returned a Partition coefficient in data set [1] of 97. The MAC amounted to 1.28 in the data set on Canis familiaris and 1.15 with Homo sapiens. In addition, the ED50 in the data set with Mus musculus is given as 0.57.

For the molecule `COC(F)(F)C(Cl)Cl` [METHOXYFLURANE], in data set [1], the Partition coefficient came to 950. The results for the MAC in the data set on Canis familiaris and in the data set on Homo sapiens were 0.24 and 0.16, respectively. This molecule also yielded an ED50 with Mus musculus of 0.22.
